From publication PMC12632313 (bioRxiv, 2025)

Assay: Ex-vivo stability in mouse whole blood
Type: in vitro ADME
Conditions: male, C57BL/6, mouse

## H-RPPGFSPFR-OH [Bradykinin (BK), Bradykinin]
  half-life: 3.9 ± 1.3 min
